Source: ChEMBL document CHEMBL4304808, “PROTAC Degradation of IRAK4 for the Treatment of Neurodegenerative and Cardiovascular Diseases” (ACS Med Chem Lett, 2019)

Assays:
[1] = molecular target: T1, Interleukin-1 receptor-associated kinase 4 (Homo sapiens, UniProt Q9NWZ3); assay: Inhibition of N-terminal GST-tagged human IRAK4 (2 to end residues) expressed in baculovirus infected Sf9 cells using Ser/Thr 7 peptide as substrate in presence of ATP after 1 hr by Z'-LYTE assay
T1 sequence (Q9NWZ3 whole entry): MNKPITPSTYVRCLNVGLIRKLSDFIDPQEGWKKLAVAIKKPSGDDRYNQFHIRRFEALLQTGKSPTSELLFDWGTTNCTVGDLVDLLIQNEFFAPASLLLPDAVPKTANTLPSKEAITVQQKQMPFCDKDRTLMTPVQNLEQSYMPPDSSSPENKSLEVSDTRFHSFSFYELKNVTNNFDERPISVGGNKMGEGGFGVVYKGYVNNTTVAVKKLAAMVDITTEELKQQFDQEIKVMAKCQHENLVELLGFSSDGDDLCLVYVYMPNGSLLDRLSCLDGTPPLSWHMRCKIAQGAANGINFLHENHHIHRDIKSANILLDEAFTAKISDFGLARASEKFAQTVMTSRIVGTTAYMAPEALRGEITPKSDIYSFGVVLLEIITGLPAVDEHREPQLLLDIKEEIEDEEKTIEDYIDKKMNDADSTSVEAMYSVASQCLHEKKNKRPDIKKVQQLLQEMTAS

[2] = molecular target: T2, Protein cereblon/Interleukin-1 receptor-associated kinase 4 (Homo sapiens, UniProt Q9NWZ3+Q96SW2); assay: Protac activity at E3 ubiquitin ligase/IRAK4 in human MCF7 cells assessed as IRAK4 degradation after 24 hrs by Western blot analysis; type: cell-based
Target sequence in this assay (Q96SW2 whole entry, one chain of several): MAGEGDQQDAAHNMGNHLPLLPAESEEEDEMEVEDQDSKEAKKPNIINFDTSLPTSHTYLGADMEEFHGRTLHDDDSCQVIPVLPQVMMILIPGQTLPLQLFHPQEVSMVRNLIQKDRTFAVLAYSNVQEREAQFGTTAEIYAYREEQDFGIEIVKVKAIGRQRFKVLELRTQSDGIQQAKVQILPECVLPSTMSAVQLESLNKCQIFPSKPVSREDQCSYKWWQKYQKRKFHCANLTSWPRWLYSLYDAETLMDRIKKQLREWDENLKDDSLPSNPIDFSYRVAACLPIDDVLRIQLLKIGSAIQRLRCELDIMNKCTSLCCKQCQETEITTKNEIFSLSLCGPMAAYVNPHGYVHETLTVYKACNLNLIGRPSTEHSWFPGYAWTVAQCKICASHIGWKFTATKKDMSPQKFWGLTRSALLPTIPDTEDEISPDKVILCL

[3] = molecular target: T2, Protein cereblon/Interleukin-1 receptor-associated kinase 4; assay: Protac activity at E3 ubiquitin ligase/IRAK4 in human MCF7 cells assessed as IRAK4 degradation after 24 hrs by Western blot analysis relative to control; type: cell-based
Target sequence in this assay (Q96SW2 whole entry, looked up, one chain of several): as the sequence (Q96SW2 whole entry, one chain of several) above

IC50 [1] | DC50 [2] | Emax [3] | SMILES
< 0.03 µM | < 0.03 µM | > 50% | COc1cc2nn(C3CCN(CCOCCOc4ccc5c(c4)CN(C4CCC(=O)NC4=O)C5=O)CC3)cc2cc1NC(=O)c1cccc(C(F)(F)F)n1 (stereo not given)
< 0.03 µM | < 0.03 µM | > 70% | O=C1CCC(N2C(=O)c3ccc(N4CCC(CN5CCN(Cc6ccc7c(c6)nc(NC(=O)c6cccc(C(F)(F)F)c6)n7[C@H]6CC[C@@H](CO)CC6)CC5)CC4)cc3C2=O)C(=O)N1 (stereo not given in full)
< 0.03 µM | 0.03 to 0.1 µM | > 70% | O=C1CCC(N2C(=O)c3ccc(OC4CCC(CN5CCN(Cc6ccc7c(c6)nc(NC(=O)c6cccc(C(F)(F)F)c6)n7[C@H]6CC[C@@H](CO)CC6)CC5)CC4)cc3C2=O)C(=O)N1 (stereo not given in full)
< 0.03 µM | < 0.03 µM | > 50% | COc1cc2nn(C3CCN(CCOCCOc4ccc5c(c4)C(=O)N(C4CCC(=O)NC4=O)C5=O)CC3)cc2cc1NC(=O)c1cccc(C(F)(F)F)n1 (stereo not given)
< 0.03 µM | < 0.03 µM | > 70% | O=C1CCC(N2C(=O)c3ccc(OCCOCCOCCN4CCN(Cc5ccc6c(c5)nc(NC(=O)c5cccc(C(F)(F)F)c5)n6[C@H]5CC[C@@H](CO)CC5)CC4)cc3C2=O)C(=O)N1 (stereo not given in full)
